Assay results reported in patent US5707817A, “Carbohydrate-based vaccine and diagnostic reagent for trichinosis” (Colorado State University Research Foundation, priority 1995, dated 1998).
Like-named read-outs stand apart in the source and are kept apart here.

Assays:
[1] = tested on: Tsp 130 binding to TSL-1 antigen; experiment: Competitive inhibition assay: disaccharide inhibition of Tsp 130 binding to TSL-1 antigen (Example 6); design: species or system T. spiralis
Protocol: (§1) Monoclonal antibody Tsp 130 was prepared as described in Denkers et al. (J. Immunol. 144:3152-3159, 1990). TSL-1 antigens were prepared from muscle stage larvae by affinity purification using a Tsp 130 antibody preparation and methods as described in Denkers et al., J. Immunol., ibid., and Denkers et al., Mol. Biochem. Parasitol., ibid.
(§2) Wells in an ELISA plate were coated with TSL-1 antigens as follows. A 96-well Immunlon II ELISA plate, available from Dynatech Laboratories, Chantilly, Va., was coated with about 100 μl/well of a solution containing about 15 ng of TSL-1 antigens per 100 μl carbonate buffer at pH 9.6, overnight, at about 4° C. Following the overnight incubation, the TSL-1 antigen-containing solution was discarded from the wells of the ELISA plate. No wash was performed. The wells of the ELISA plate were then filled to the top with about 10% dry milk in phosphate buffered saline and allowed to incubate for about 1 hour at room temperature. Following the 1 hour incubation, the milk solution was discarded from the wells. No wash was performed.
(§3) Samples in which Tsp-130 monoclonal antibodies and disaccharides, as listed below, were pre-incubated prior to addition to the treated ELISA plate were prepared as follows. One thousand-fold serial dilutions of the following disaccharides, ranging from about 1×10^-6 fg/ml to about 1 mg/ml, were prepared in water: (a) α-tyvelose(1,3)β-d-N-acetylgalactosamine (also referred to herein as α-tyv-GalNAc); (b) β-tyvelose(1,3)β-d-N-acetylgalactosamine (also referred to herein as β-tyv-GalNAc); and (c) α-glucoseα-D-glucose (also referred to herein as α-glc-glc, or trehalose). The disaccharide-containing serial dilutions were then mixed with an about 1:6,400 dilution of Tsp 130 antibody at an about 1:1 (v:v) ratio. The samples were incubated for overnight at about 4° C.
About 100 μl of the pre-incubation samples were added in triplicate to wells in the milk-coated ELISA plate. The plate was incubated for about 1 hour at room temperature to allow any unbound Tsp 130 antibody in each sample to bind to TSL-1 antigen coated onto the ELISA plate. […]
The amount of Tsp 130 antibody that bound to TSL-1 antigen coated onto the ELISA plate was determined using the following method. […] The peroxidase-conjugated antibodies which bound to Tsp 130 antibody in the wells were then detected by (a) adding 100 μl/well of 3,3',5,5'-tetramethylbenzidine mixed 1:1 (v:v) with 0.02% hydrogen peroxide in a citric acid buffer (i.e., TMB Microwell Peroxidase Substrate System available from Kirkegaard & Perry) and (b) incubating the plate for about 5 minutes at room temperature. […] The color reaction was quantitated using a Microplate Reader #7520, available from Cambridge Technology, Inc., Watertown, Mass. at a wavelength of 450 nm. […]

[2] = tested on: Tsp 130 binding to the crude T. spiralis muscle stage larval lysate E11.5; experiment: Competitive inhibition assay: disaccharide inhibition of Tsp 130 binding to crude muscle stage larval lysate E11.5 (Example 7); conditions: for inhibition of Tsp 130 binding to E11.5 lysate: about 500 μg/ml
Protocol: as §3
(§4) About 100 μl of the pre-incubation samples were added in triplicate to wells in the milk-coated ELISA plate. The plate was incubated for about 1 hour at room temperature to allow any unbound Tsp 130 antibody in each sample to bind to TSL-1 antigen coated onto the ELISA plate. The plate was then washed 3 times with water.
(§5) The amount of Tsp 130 antibody that bound to TSL-1 antigen coated onto the ELISA plate was determined using the following method. About 100 μl of an about 1:8,000 dilution of horse radish peroxidase-conjugated goat anti-mouse IgG antibody (available from Kirkegaard & Perry Laboratories, Inc., Gaithersburg, Md.) was added to each well of the ELISA plate. The plate was then incubated for about 45 minutes at room temperature. Following incubation, the plate was washed 5 times with 0.05% Tween 20 in phosphate-buffered saline (PBS). The peroxidase-conjugated antibodies which bound to Tsp 130 antibody in the wells were then detected by (a) adding 100 μl/well of 3,3',5,5'-tetramethylbenzidine mixed 1:1 (v:v) with 0.02% hydrogen peroxide in a citric acid buffer (i.e., TMB Microwell Peroxidase Substrate System available from Kirkegaard & Perry) and (b) incubating the plate for about 5 minutes at room temperature. The color reaction was stopped by adding about 100 μl/well of 1M o-phosphoric acid. The color reaction was quantitated using a Microplate Reader #7520, available from Cambridge Technology, Inc., Watertown, Mass. at a wavelength of 450 nm.
Monoclonal antibody Tsp 130 was prepared as described in Example 5. A crude muscle larval lysate of T. spiralis, referred to herein as E11.5, was prepared according to the method as described in Reason et al., ibid.
An Immunlon II ELISA plate coated with E11.5 lysate was prepared using the method described in Example 5 with the variation that wells in the plate were coated with about 100 μl/well of a solution containing about 250 ng of E11.5 lysate per 100 μl carbonate buffer at pH 9.6. […]

[3] = tested on: binding of Tsp 130 antibody to TSL-1 antigen; experiment: Competition ELISA: disaccharide inhibition of Tsp 130 antibody binding to TSL-1 antigen (Example 5); design: species or system T. spiralis; conditions: for inhibition of binding of Tsp 130 antibody to TSL-1 antigen: about 500 μg/ml; for relative affinity of Tsp 130 binding: in words, Example 5
Protocol: as §1, §2, §3, §4, §5

[4] = tested on: binding of Tsp 130 antibody to T. spiralis TSL-1 antigens and E11.5 lysate

Molecule | inhibition of Tsp 130 binding to TSL-1 antigen ([1]; about 1 mg/ml) | inhibition of Tsp 130 binding to E11.5 lysate [2] | inhibition of binding of Tsp 130 antibody to TSL-1 antigen [3] | relative affinity of Tsp 130 binding [3] | further results
CC(=O)N[C@@H]1[C@@H](O[C@@H]2O[C@H](C)[C@@H](O)C[C@@H]2O)[C@@H](O)[C@@H](CO)O[C@H]1O [β-tyv-GalNAc, β-tyvelose(1,3)β-d-N-acetylgalactosamine] | about 97% | about 97% | about 100% | higher affinity than to α-tyv-GalNAc | inhibition of Tsp 130 binding to TSL-1 antigen ([1]; about 100 μg/ml): about 92%; relative affinity of Tsp 130 binding ([1]; in words, Example 6): higher affinity than to α-tyv-GalNAc; relative affinity of Tsp 130 binding ([2]; in words, Example 7): higher affinity than to α-tyv-GalNAc or to α-glc-glc
OC[C@H]1O[C@H](O[C@H]2O[C@H](CO)[C@@H](O)[C@H](O)[C@H]2O)[C@H](O)[C@@H](O)[C@@H]1O [α-glc-glc, α-glucoseα-D-glucose, reference compound] | – | about 7% | about 30% | even weaker | –
CC(=O)N[C@@H]1[C@@H](O[C@H]2O[C@H](C)[C@@H](O)C[C@@H]2O)[C@@H](O)[C@@H](CO)O[C@H]1O [α-tyv-GalNAc, α-tyvelose(1,3)β-d-N-acetylgalactosamine] | about 74% | about 28% | about 50% | – | –
β-3,6-dideoxy-D-arabinohexose [β-tyvelose] | – | – | – | – | competitive inhibition of Tsp 130 antibody binding, comparison ([4]; in words, Examples 5 through 7): better than α-tyvelose and even better than α-glc-glc
C[C@H]1O[C@H](O)[C@@H](O)C[C@@H]1O [α-tyvelose] | – | – | – | – | competitive inhibition of Tsp 130 antibody binding, comparison [4]: able to competitively inhibit Tsp 130 antibody binding to TSL-1 antigen but at a higher concentration than β-tyvelose
